Assay results as given in US20230058171A1, “NEW ORAL PHARMACEUTICAL COMPOSITION FOR CANCER THERAPY” (BOEHRINGER INGELHEIM INTERNATIONAL GMBH, priority 2021, published 2023).

Experiments:
[1] = test system: patients with advanced or metastatic solid tumors; experiment: Trial 1403-0001 dose finding: MTD/RDE, BLRM analysis with overdose control (EWOC); type: in vivo; settings: for N of evaluable patients with events of interests: all cycles
Text: Preliminary pharmacokinetic (PK) data were also used as supportive information for the dose decision.

patients = experiment: Trial 1403-0002 combination with ezabenlimab (and anti-LAG3-1): adverse events; settings: for AEs leading to Discontinuation: Dose limiting toxicity, % / AEs leading to Discontinuation: Other adverse event, % / Patients with Dose limiting toxicity (cycle one), % / Serious AEs: Cogenital Anomaly or Birth Defect, % / Serious AEs: Is Life Threatening, % / Serious AEs: Other Medically Important Serious Event, % / Serious AEs: Persists of Signif. Disability/Incapacity, % / Serious AEs: Requires or Prolongs Hospitalization, % / Serious AEs: Results in Death, % / Subjects with AEs leading to Discontinuation of trial drug, % / Subjects with AEs leading to dose reduction of trial drug, % / Subjects with any AE, % / Subjects with immune-related AEs, % / Subjects with infusion related reactions, % / Subjects with investigator defined drug-related AEs, % / Subjects with maximum CTC Grade 1, % / Subjects with maximum CTC Grade 2, % / Subjects with maximum CTC Grade 3, % / Subjects with maximum CTC Grade 4, % / Subjects with maximum CTC Grade 5, % / Subjects with serious AEs, %: triple combination D1 q3w
[2] = double combination with 240 mg ezabenlimab, 15 patients

Cc1c(C(=O)O)ccc2c3n(nc12)[C@@H]1[C@H](C3)N(CC2CC2)[C@@]2(C(=O)Nc3cc(Cl)ccc32)[C@H]1c1cccc(Cl)c1F [MDM2-antagonist of formula I, (2′S,3′S,3a'S,10a'S)-6-chloro-3′-(3-chloro-2-fluorophenyl)-1′-(cyclopropylmethyl)-6′-methyl-2-oxo-1,2,3′,3a′,10′,10a′-hexahydro-1′H-spiro[indole-3,2′-pyrrolo[2′,3′:4,5]pyrrolo[1,2-b]indazole]-7′-carboxylic acid]
N of evaluable patients with events of interests ([1]; Arm A, 10 mg (1 evaluable)): 1 | N of evaluable patients with events of interests ([1]; Arm A, 20 mg (2 evaluable)): 1 | N of evaluable patients with events of interests ([1]; Arm A, 30 mg (3 evaluable)): 1 | N of evaluable patients with events of interests ([1]; Arm A, 45 mg (6 evaluable)): 1 | N of evaluable patients with events of interests ([1]; Arm A, 50 mg (4 evaluable)): 1 | N of evaluable patients with events of interests ([1]; Arm A, 60 mg (7 evaluable)): 2 | N of evaluable patients with events of interests ([1]; Arm A, 80 mg (6 evaluable)): 5 | highest dose level that fulfilled the EWOC criterion from the additional BLRM analysis ([1]; Arm A, events of interest during the entire treatment period): 45 mg | Maximum Tolerated Dose (MTD) ([1]; monotherapy, Arm A D1 q3w): 60 mg | Recommended Dose for Expansion (RDE) ([1]; monotherapy, Arm A D1 q3w): 45 mg | Maximum Tolerated Dose (MTD) ([1]; monotherapy, Arm B D1 D8 q4w): 45 mg | DLTs reported after cycle 1 (patients; [2]): Four | patients with Grade ≥3 adverse events (patients; [2]): eight | patients with Grade ≥3 anemia (patients; [2]): 6 patients | patients with Grade ≥3 lymphopenia (patients; [2]): 3 patients | patients with Grade ≥3 thrombocytopenia (patients; [2]): 4 patients | patients with a DLT during cycle 1 (patients; double combination with 240 mg ezabenlimab, 15 patients, Grade 2 neutropenia at 45 mg): One | safety profile (patients; double combination, 30 mg or 45 mg + 240 mg ezabenlimab D1 q3w): manageable safety profile | AEs leading to Discontinuation: Dose limiting toxicity, % (patients; 10 mg): 0% | AEs leading to Discontinuation: Other adverse event, % (patients; 10 mg): 0% | Patients with Dose limiting toxicity (cycle one), % (patients; 10 mg): 0% | Serious AEs: Cogenital Anomaly or Birth Defect, % (patients; 10 mg): 0% | Serious AEs: Is Life Threatening, % (patients; 10 mg): 0% | Serious AEs: Other Medically Important Serious Event, % (patients; 10 mg): 0% | Serious AEs: Persists of Signif. Disability/Incapacity, % (patients; 10 mg): 0% | Serious AEs: Requires or Prolongs Hospitalization, % (patients; 10 mg): 0% | Serious AEs: Results in Death, % (patients; 10 mg): 0% | Subjects with AEs leading to Discontinuation of trial drug, % (patients; 10 mg): 0% | Subjects with AEs leading to dose reduction of trial drug, % (patients; 10 mg): 0% | Subjects with any AE, % (patients; 10 mg): 100% | Subjects with immune-related AEs, % (patients; 10 mg): 0% | Subjects with infusion related reactions, % (patients; 10 mg): 33.3% | Subjects with investigator defined drug-related AEs, % (patients; 10 mg): 100% | Subjects with maximum CTC Grade 1, % (patients; 10 mg): 33.3% | Subjects with maximum CTC Grade 2, % (patients; 10 mg): 66.7% | Subjects with maximum CTC Grade 3, % (patients; 10 mg): 0% | Subjects with maximum CTC Grade 4, % (patients; 10 mg): 0% | Subjects with maximum CTC Grade 5, % (patients; 10 mg): 0% | Subjects with serious AEs, % (patients; 10 mg): 0% | AEs leading to Discontinuation: Dose limiting toxicity, % (patients; 20 mg): 0% | AEs leading to Discontinuation: Other adverse event, % (patients; 20 mg): 0% | Patients with Dose limiting toxicity (cycle one), % (patients; 20 mg): 0% | Serious AEs: Cogenital Anomaly or Birth Defect, % (patients; 20 mg): 0% | Serious AEs: Is Life Threatening, % (patients; 20 mg): 0% | Serious AEs: Other Medically Important Serious Event, % (patients; 20 mg): 0% | Serious AEs: Persists of Signif. Disability/Incapacity, % (patients; 20 mg): 0% | Serious AEs: Requires or Prolongs Hospitalization, % (patients; 20 mg): 66.7% | Serious AEs: Results in Death, % (patients; 20 mg): 0% | Subjects with AEs leading to Discontinuation of trial drug, % (patients; 20 mg): 0% | Subjects with AEs leading to dose reduction of trial drug, % (patients; 20 mg): 0% | Subjects with any AE, % (patients; 20 mg): 100% | Subjects with immune-related AEs, % (patients; 20 mg): 33.3% | Subjects with infusion related reactions, % (patients; 20 mg): 0% | Subjects with investigator defined drug-related AEs, % (patients; 20 mg): 100% | Subjects with maximum CTC Grade 1, % (patients; 20 mg): 0% | Subjects with maximum CTC Grade 2, % (patients; 20 mg): 0% | Subjects with maximum CTC Grade 3, % (patients; 20 mg): 100% | Subjects with maximum CTC Grade 4, % (patients; 20 mg): 0% | Subjects with maximum CTC Grade 5, % (patients; 20 mg): 0% | Subjects with serious AEs, % (patients; 20 mg): 66.7% | AEs leading to Discontinuation: Dose limiting toxicity, % (patients; 30 mg): 0% | AEs leading to Discontinuation: Other adverse event, % (patients; 30 mg): 0% | Patients with Dose limiting toxicity (cycle one), % (patients; 30 mg): 0% | Serious AEs: Cogenital Anomaly or Birth Defect, % (patients; 30 mg): 0% | Serious AEs: Is Life Threatening, % (patients; 30 mg): 0% | Serious AEs: Other Medically Important Serious Event, % (patients; 30 mg): 0% | Serious AEs: Persists of Signif. Disability/Incapacity, % (patients; 30 mg): 0% | Serious AEs: Requires or Prolongs Hospitalization, % (patients; 30 mg): 66.7% | Serious AEs: Results in Death, % (patients; 30 mg): 0% | Subjects with AEs leading to Discontinuation of trial drug, % (patients; 30 mg): 0% | Subjects with AEs leading to dose reduction of trial drug, % (patients; 30 mg): 33.3% | Subjects with any AE, % (patients; 30 mg): 100% | Subjects with immune-related AEs, % (patients; 30 mg): 0% | Subjects with infusion related reactions, % (patients; 30 mg): 0% | Subjects with investigator defined drug-related AEs, % (patients; 30 mg): 100% | Subjects with maximum CTC Grade 1, % (patients; 30 mg): 0% | Subjects with maximum CTC Grade 2, % (patients; 30 mg): 33.3% | Subjects with maximum CTC Grade 3, % (patients; 30 mg): 33.3% | Subjects with maximum CTC Grade 4, % (patients; 30 mg): 33.3% | Subjects with maximum CTC Grade 5, % (patients; 30 mg): 0% | Subjects with serious AEs, % (patients; 30 mg): 66.7% | AEs leading to Discontinuation: Dose limiting toxicity, % (patients; 45 mg): 0% | AEs leading to Discontinuation: Other adverse event, % (patients; 45 mg): 0% | Patients with Dose limiting toxicity (cycle one), % (patients; 45 mg): 0% | Serious AEs: Cogenital Anomaly or Birth Defect, % (patients; 45 mg): 0% | Serious AEs: Is Life Threatening, % (patients; 45 mg): 0% | Serious AEs: Other Medically Important Serious Event, % (patients; 45 mg): 0% | Serious AEs: Persists of Signif. Disability/Incapacity, % (patients; 45 mg): 0% | Serious AEs: Requires or Prolongs Hospitalization, % (patients; 45 mg): 50.0% | Serious AEs: Results in Death, % (patients; 45 mg): 0% | Subjects with AEs leading to Discontinuation of trial drug, % (patients; 45 mg): 0% | Subjects with AEs leading to dose reduction of trial drug, % (patients; 45 mg): 50.0% | Subjects with any AE, % (patients; 45 mg): 100% | Subjects with immune-related AEs, % (patients; 45 mg): 0% | Subjects with infusion related reactions, % (patients; 45 mg): 0% | Subjects with investigator defined drug-related AEs, % (patients; 45 mg): 100% | Subjects with maximum CTC Grade 1, % (patients; 45 mg): 0% | Subjects with maximum CTC Grade 2, % (patients; 45 mg): 50.0% | Subjects with maximum CTC Grade 3, % (patients; 45 mg): 0% | Subjects with maximum CTC Grade 4, % (patients; 45 mg): 50.0% | Subjects with maximum CTC Grade 5, % (patients; 45 mg): 0% | Subjects with serious AEs, % (patients; 45 mg): 50.0% | AEs leading to Discontinuation: Dose limiting toxicity, % (patients; Total): 0% | AEs leading to Discontinuation: Other adverse event, % (patients; Total): 0% | Patients with Dose limiting toxicity (cycle one), % (patients; Total): 0% | Serious AEs: Cogenital Anomaly or Birth Defect, % (patients; Total): 0% | Serious AEs: Is Life Threatening, % (patients; Total): 0% | Serious AEs: Other Medically Important Serious Event, % (patients; Total): 0% | Serious AEs: Persists of Signif. Disability/Incapacity, % (patients; Total): 0% | Serious AEs: Requires or Prolongs Hospitalization, % (patients; Total): 45.5% | Serious AEs: Results in Death, % (patients; Total): 0% | Subjects with AEs leading to Discontinuation of trial drug, % (patients; Total): 0% | Subjects with AEs leading to dose reduction of trial drug, % (patients; Total): 18.2% | Subjects with any AE, % (patients; Total): 100% | Subjects with immune-related AEs, % (patients; Total): 9.1% | Subjects with infusion related reactions, % (patients; Total): 9.1% | Subjects with investigator defined drug-related AEs, % (patients; Total): 100% | Subjects with maximum CTC Grade 1, % (patients; Total): 9.1% | Subjects with maximum CTC Grade 2, % (patients; Total): 36.4% | Subjects with maximum CTC Grade 3, % (patients; Total): 36.4% | Subjects with maximum CTC Grade 4, % (patients; Total): 18.2% | Subjects with maximum CTC Grade 5, % (patients; Total): 0% | Subjects with serious AEs, % (patients; Total): 45.5%
